Measured values reported in paper PMC5730604.
Like-named read-outs stand apart in the source and are kept apart here. Starred links: 1 amine or outer side, 2 acyl side, 3 side chain; linkers in the order of their positions; H or OH if unused. Positions of bridges follow the written chain, without caps; N, C: chain ends. Non-standard residues stand in square brackets, D forms with d. Residues, ends and D or L forms follow the SMILES beside them. Groups on a side chain read outwards from the residue. Chains are numbered I, II in the order given. *: point of attachment. PEG28 = NCCOCCOCCOCCOCCOCCOCCOCCOCCOCCOCCOCCOCCOCCOCCOCCOCCOCCOCCOCCOCCOCCOCCOCCOCCOCCOCCOCCOCCC(=O)O; X1 = O=C(CCCC[C@@H]1SC[C@@H]2NC(=O)N[C@@H]21)NCCCOCCOCCOCCCN*; Tyr(3-NO2) = N[C@@H](Cc1ccc(O)c([N+](=O)[O-])c1)C(=O)O; Biotin = O=C1N[C@H]2[C@H](CS[C@H]2CCCCC(=O)*)N1; Glutaryl = O=C(CCCC(=O)[*:2])[*:1]; Hyp = O=C(O)[C@@H]1C[C@@H](O)CN1; PEG4 = NCCOCCOCCOCCOCCC(=O)O

Legend:
A431 = assay: Flow cytometry binding to cells; design: species or system Human; key to the marks not given beside the values; conditions: 1 µM biotinylated peptide
PC-3 = assay: Flow cytometry binding to cells; design: species or system Human; key to the marks not given beside the values; conditions: 1 µM biotinylated peptide
K562 = assay: Flow cytometry binding to cells; design: species or system Human; conditions: 1 µM biotinylated peptide; note: key: ++: Strong binding; +: medium binding; +/−: weak binding; −: no binding
HUVEC = assay: Flow cytometry binding to cells; design: species or system Human; conditions: 1 µM biotinylated peptide
foreskin fibroblasts = conditions: flow cytometry, 1 µM biotinylated peptide
primary lymphocytes = assay: Flow cytometry binding to cells; conditions: 1 µM biotinylated peptide; for binding to fresh lymphocytes: Table S1, human, 2 mM MnCl2, on ice; for binding to primary lymphocytes: human, 2 mM MnCl2, 30 min on ice, streptavidin-PerCP-Cy5.5; for all read-outs here: key: ++: Strong binding; +: medium binding; +/−: weak binding; −: no binding
primary monocytes = assay: Flow cytometry binding to cells; conditions: 1 µM biotinylated peptide; for binding to fresh monocytes: Table S1, human, 2 mM MnCl2, on ice; for binding to primary monocytes: human, 2 mM MnCl2, 30 min on ice, streptavidin-PerCP-Cy5.5; for all read-outs here: key: ++: Strong binding; +: medium binding; +/−: weak binding; −: no binding
primary granulocytes = assay: Flow cytometry binding to cells; conditions: 1 µM biotinylated peptide; for binding to fresh granulocytes: Table S1, human, 2 mM MnCl2, on ice; for binding to primary granulocytes: human, 2 mM MnCl2, 30 min on ice, streptavidin-PerCP-Cy5.5
primary monocytes 2 days = assay: Flow cytometry binding to cells; conditions: 1 µM biotinylated peptide; note: key: ++: Strong binding; +: medium binding; +/−: weak binding; −: no binding
[1] = tested on: primary macrophages 7 days; assay: Flow cytometry binding to cells; conditions: 1 µM biotinylated peptide; for binding to macrophages 7 days: Table S1, human, 2 mM MnCl2, on ice; for binding to primary macrophages 7 days: human, 2 mM MnCl2, 30 min on ice, streptavidin-PerCP-Cy5.5; for binding to macrophages 7 days: key: ++: strong binding; +: m edium binding; +/-: weak or heterogeneous binding; -: no binding
J774A.1 = conditions: mouse, flow cytometry, 1 µM biotinylated peptide
3LL-R = conditions: mouse, flow cytometry, 1 µM biotinylated peptide
Hepa1–6 = conditions: mouse, flow cytometry, 1 µM biotinylated peptide
primary macrophages 7d = assay: Flow cytometry binding to cells; conditions: 1 µM biotinylated peptide; for binding to macrophages 7d: Table S1, mouse, 2 mM MnCl2, on ice; for binding to primary macrophages 7d: mouse, 2 mM MnCl2, 30 min on ice, streptavidin-PerCP-Cy5.5
GPC-16 = assay: Flow cytometry binding to cells; design: key to the marks not given beside the values; conditions: 1 µM biotinylated peptide
104C1 = assay: Flow cytometry binding to cells; design: key to the marks not given beside the values; conditions: 1 µM biotinylated peptide
JH4 clone 1 = assay: Flow cytometry binding to cells; design: key to the marks not given beside the values; conditions: 1 µM biotinylated peptide
U-87MG = assay: Flow cytometry binding to cells; design: key: ++: strong binding; +: m edium binding; +/-: weak or heterogeneous binding; -: no binding; conditions: Table S1, human, 1 µM biotinylated peptide, 2 mM MnCl2, on ice
U-138MG = assay: Flow cytometry binding to cells; design: key: ++: strong binding; +: m edium binding; +/-: weak or heterogeneous binding; -: no binding; conditions: Table S1, human, 1 µM biotinylated peptide, 2 mM MnCl2, on ice
MCF-7 = assay: Flow cytometry binding to cells; conditions: Table S1, human, 1 µM biotinylated peptide, 2 mM MnCl2, on ice; note: key: ++: strong binding; +: m edium binding; +/-: weak or heterogeneous binding; -: no binding
MDA-MB-231 = assay: Flow cytometry binding to cells; design: key: ++: strong binding; +: m edium binding; +/-: weak or heterogeneous binding; -: no binding; conditions: Table S1, human, 1 µM biotinylated peptide, 2 mM MnCl2, on ice
HT-29 = assay: Flow cytometry binding to cells; design: key: ++: strong binding; +: m edium binding; +/-: weak or heterogeneous binding; -: no binding; conditions: Table S1, human, 1 µM biotinylated peptide, 2 mM MnCl2, on ice
A549 = tested on: A549; design: key to the marks not given beside the values; conditions: Table S1; human; flow cytometry, 1 µM biotinylated peptide, 2 mM MnCl2, on ice
MHEC5-T = conditions: Table S1; mouse; flow cytometry, 1 µM biotinylated peptide, 2 mM MnCl2, on ice
3LL-S = conditions: Table S1; mouse; flow cytometry, 1 µM biotinylated peptide, 2 mM MnCl2, on ice
MC38 = conditions: Table S1; mouse; flow cytometry, 1 µM biotinylated peptide, 2 mM MnCl2, on ice
EG7 = conditions: Table S1; mouse; flow cytometry, 1 µM biotinylated peptide, 2 mM MnCl2, on ice
TSA = conditions: Table S1; mouse; flow cytometry, 1 µM biotinylated peptide, 2 mM MnCl2, on ice
C26 = conditions: Table S1; mouse; flow cytometry, 1 µM biotinylated peptide, 2 mM MnCl2, on ice
VX2 / J S-2-2r = assay: Flow cytometry binding to cells; design: key: ++: strong binding; +: m edium binding; +/-: weak or heterogeneous binding; -: no binding; conditions: Table S1, rabbit, 1 µM biotinylated peptide, 2 mM MnCl2, on ice
leukocytes = conditions: Table S1; rabbit; flow cytometry, 1 µM biotinylated peptide, 2 mM MnCl2, on ice
PBEC = conditions: Table S1; pig; flow cytometry, 1 µM biotinylated peptide, 2 mM MnCl2, on ice
NIH-3T3 = conditions: mouse, flow cytometry, 1 µM biotinylated peptide
Description: (§1) from DSMZ or LGC and cultured according to the distributors’ guidelines. Human, murine or
(§2) guinea pig leukocytes or macrophages were isolated and cultured as described below. Cells
(§3) growing in monolayers were detached using trypsin/EDTA and then re- suspended in complete
(§4) culture medium. After washing with washing buffer (W B: 0.9% NaCl, 10 mM Hepes, pH 7.3) at
(§5) 4°C, cells were re-suspended at 2x10^6 cells/ml in peptide blocking b uf f er ( PBB: 0.9% NaCl,
(§6) 10 m M H epes, pH 7.3, 5 m M KCl , 3% BSA, 5% FCS) and incubated for 10 minutes on ice
(§7) concentration in PBB were added to equal volumes of aliquots of 1x10^5 cells, and were
(§8) incubated f or 30 min on ice with repeated shaking to keep the cells in suspension. Except
(§9) three times wit h 1 ml W B, followed by incubation with streptavidin labeled wit h PerCP-Cy5.5
(§10) (BD Biosciences, 200 µg/ml; diluted 1:400 in PBB) for 15 min on ice. After one additional
(§11) wa s h ing step with phosphate- buffered saline (PBS) at 4°C, samples were re-suspended in
(§12) PBS with Hoechst 33258 solution (0.5 µg/ml) and analyzed using a F ACS Canto system ( at
least 1x10^4 cells per sample were counted). Evaluations were performed using FloJo software.
W hole cells were gated i n a FSC/SSC plot and live gating was based on Hoechst exclusion.
After gating out debris, aggregates and dead cells, overlay histograms in the PerCP-Cy5.5
indicated cases the geometrical mean f luorescence was recorded.
For determining binding affinity, a rang e of concentrations of the biotinylated compound was
tested and the f luorescent signals were plotted against concentration. The concentration at
which half-maximum binding intensity was reached (KD) was calculated using Origin 9.0
sof tware and a “one site specif ic binding” fit (y =(Bmax* x) /(KD+x) ).
f luorescent signals were plotted against competitor concentration. The concentration at which

HeLa = tested on: HeLa; design: key to the marks not given beside the values; conditions: Table S1; human; flow cytometry, 1 µM biotinylated peptide, 2 mM MnCl2, on ice
L-929 = conditions: Table S1; mouse; flow cytometry, 1 µM biotinylated peptide, 2 mM MnCl2, on ice
Description: as §1, §2, §3, §4, §5, §6, §7, §8, §9, §10, §11, §12
(§13) least 1x10^4 cells per sample were counted). Evaluations were performed using FloJo software. […]
(§14) indicated cases the geometrical mean f luorescence was recorded. […]
(§15) which half-maximum binding intensity was reached (KD) was calculated using Origin 9.0 […]

E0771 = conditions: Table S1; mouse; flow cytometry, 1 µM biotinylated peptide, 2 mM MnCl2, on ice
Description: as §1, §2, §3, §4, §5, §6, §7, §8, §9, §10, §11, §12, §13, §14, §15

4T1 = conditions: Table S1; mouse; flow cytometry, 1 µM biotinylated peptide, 2 mM MnCl2, on ice
Description: as §1, §2, §3, §4, §5, §6, §7, §8, §9, §10, §11, §12, §13, §14, §15

PC-3 or A431 cells = conditions: streptavidin staining
Description: washed as described above and then re-suspended in Eagle’s minimum essential medium
incubated on ice or at 37°C. At different time points after washing 50 µl samples were taken
and added to 50 µl of Streptavidin- PerCP-Cy5.5 (diluted 1:200), incubated on ice f or 15 min,
washed with PBS, and analyzed in PBS with Hoechst solution. Fluorescent signals were
plotted against time between washing and streptavidin addition.
over time after incubation on ice and at 37°C.
labeled streptavidin as described previously f or flow cytometry assays.

primary leukocytes = assay: Flow cytometry binding to cells; conditions: 1 µM biotinylated peptide; note: key: ++: Strong binding; +: medium binding; +/−: weak binding; −: no binding
H MC-1 = assay: Flow cytometry binding to cells; conditions: Table S1, human, 1 µM biotinylated peptide, 2 mM MnCl2, on ice; note: key: ++: Strong binding; +: medium binding; +/−: weak binding; −: no binding
[2] = 2 mM MnCl2, 30 min on ice, streptavidin-PerCP-Cy5.5
[3] = Table S1, human, 2 mM MnCl2, on ice
[4] = Table S1, guinea pig, 2 mM MnCl2, on ice
[5] = guinea pig, 2 mM MnCl2, 30 min on ice, streptavidin-PerCP-Cy5.5

## NC(=O)C[C@@H]1NC(=O)[C@@H]2C[C@@H](O)CN2C(=O)CNC(=O)[C@H](Cc2ccc(O)c([N+](=O)[O-])c2)NC(=O)CNC(=O)[C@@H](CC(=O)O)NC(=O)[C@H](N)CSSC[C@H](C(=O)NCCOCCOCCOCCOCCC(=O)N[C@@H](CCCCNC(=O)CCCC(=O)NCCCOCCOCCOCCCNC(=O)CCCC[C@@H]2SC[C@@H]3NC(=O)N[C@@H]32)C(N)=O)NC1=O [B9-Biotin] (H-[dC][dD]G[Tyr(3-NO2)]G[Hyp]N[dC][PEG4]K([Glutaryl-X1])-NH2; disulfide 1-8)
A431; [2]
  binding to A431: ++
A431; [3]
  binding to A431: ++
PC-3; [2]
  binding to PC-3: ++
PC-3; [3]
  binding to PC-3: ++
K562; [2]
  binding to K562: −
K562; [3]
  binding to K562: -
HUVEC; [2]
  binding to HUVEC: +
HUVEC; [3]
  binding to HUVEC: +
Foreskin fibroblasts; [3]
  binding to foreskin fibroblasts: -
Foreskin fibroblasts; [2]
  binding to foreskin fibroblasts: −
Primary lymphocytes
  binding to fresh lymphocytes: -
  binding to primary lymphocytes: −
Primary monocytes
  binding to fresh monocytes: -
  binding to primary monocytes: −
Primary granulocytes
  binding to fresh granulocytes: -
  binding to primary granulocytes: −
Primary monocytes 2 days; [3]
  binding to monocytes 2 days: -
Primary monocytes 2 days; human, 2 mM MnCl2, 30 min on ice, streptavidin-PerCP-Cy5.5
  binding to primary monocytes 2 days: −
[1]
  binding to macrophages 7 days: +/-
  binding to primary macrophages 7 days: +/−
J774A.1; Table S1, 2 mM MnCl2, on ice
  binding to J774A.1: -
J774A.1; [2]
  binding to J774A.1: −
3LL-R; Table S1, 2 mM MnCl2, on ice
  binding to 3LL-R: +
3LL-R; [2]
  binding to 3LL-R: +
Hepa1–6; Table S1, 2 mM MnCl2, on ice
  binding to Hepa1-6: +
Hepa1–6; [2]
  binding to Hepa1–6: +
Primary macrophages 7d
  binding to macrophages 7d: -
  binding to primary macrophages 7d: −
GPC-16; [4]
  binding to GPC-16: ++
GPC-16; [5]
  binding to GPC-16: ++
104C1; [4]
  binding to 104C1: ++
104C1; [5]
  binding to 104C1: ++
JH4 clone 1; [4]
  binding to JH4 clone 1: ++
JH4 clone 1; [5]
  binding to JH4 clone 1: ++
U-87MG
  binding to U-87MG: ++
U-138MG
  binding to U-138MG: ++
MCF-7
  binding to MCF-7: +
MDA-MB-231
  binding to MDA-MB-231: ++
HT-29
  binding to HT-29: ++
A549
  binding to A549: ++
MHEC5-T
  binding to MHEC5-T: +
3LL-S
  binding to 3LL-S: +
MC38
  binding to MC38: -
EG7
  binding to EG7: -
TSA
  binding to TSA: +
C26
  binding to C26: +
VX2 / J S-2-2r
  binding to VX2 / J S-2-2r: ++
leukocytes
  binding to leukocytes: -
PBEC
  binding to PBEC: +
NIH-3T3; Table S1, 2 mM MnCl2, on ice
  binding to NIH-3T3: +
NIH-3T3; [2]
  binding to NIH-3T3: +
HeLa
  binding to HeLa: ++
L-929
  binding to L-929: -
E0771
  binding to E0771: -
4T1
  binding to 4T1: +
PC-3 or A431 cells; PC-3 or A431 cells, incubated at 37 °C
  streptavidin signal on cells after 5 min: no signal above background

## CC[C@H](C)[C@H](NC(=O)[C@H](CCSC)NC(=O)CCCC[C@@H]1SC[C@@H]2NC(=O)N[C@@H]21)C(=O)N[C@@H](Cc1ccccc1)C(=O)N[C@@H](CC(C)C)C(=O)NCC(=O)NCC(=O)N[C@@H](CCCCNC(=O)CCOCCOCCOCCOCCOCCOCCOCCOCCOCCOCCOCCOCCOCCOCCOCCOCCOCCOCCOCCOCCOCCOCCOCCOCCOCCOCCOCCOCCNC(=O)[C@H]1CSSC[C@@H](N)C(=O)N[C@H](CC(=O)O)C(=O)NCC(=O)N[C@@H](Cc2ccc(O)c([N+](=O)[O-])c2)C(=O)NCC(=O)N2C[C@H](O)C[C@H]2C(=O)N[C@@H](CC(N)=O)C(=O)N1)C(=O)N[C@@H](CCCCNC(=O)CCOCCOCCOCCOCCOCCOCCOCCOCCOCCOCCOCCOCCOCCOCCOCCOCCOCCOCCOCCOCCOCCOCCOCCOCCOCCOCCOCCOCCNC(=O)[C@H]1CSSC[C@@H](N)C(=O)N[C@H](CC(=O)O)C(=O)NCC(=O)N[C@@H](Cc2ccc(O)c([N+](=O)[O-])c2)C(=O)NCC(=O)N2C[C@H](O)C[C@H]2C(=O)N[C@@H](CC(N)=O)C(=O)N1)C(=O)O [Biotin-Y9] (I: H-[dC][dD]G[Tyr(3-NO2)]G[Hyp]N[dC][PEG28] / II: H-[dC][dD]G[Tyr(3-NO2)]G[Hyp]N[dC][PEG28] / III: Biotin-MIFLGGKK-OH; disulfide I:1-I:8, II:1-II:8; amide I:C-III:7, II:C-III:8)
A431; [2]
  binding to A431: ++
A431; [3]
  binding to A431: ++
PC-3; [2]
  binding to PC-3: ++
PC-3; [3]
  binding to PC-3: ++
K562; [2]
  binding to K562: −
K562; [3]
  binding to K562: -
HUVEC; [2]
  binding to HUVEC: ++
HUVEC; [3]
  binding to HUVEC: ++
Primary lymphocytes
  binding to fresh lymphocytes: -
  binding to primary lymphocytes: −
Primary monocytes
  binding to fresh monocytes: -
  binding to primary monocytes: −
Primary granulocytes
  binding to fresh granulocytes: -
  binding to primary granulocytes: −
[1]
  binding to macrophages 7 days: +/-
  binding to primary macrophages 7 days: +/−
Primary leukocytes; Table S1, mouse, 2 mM MnCl2, on ice
  binding to leukocytes: -
Primary leukocytes; mouse, 2 mM MnCl2, 30 min on ice, streptavidin-PerCP-Cy5.5
  binding to primary leukocytes: −
Primary macrophages 7d
  binding to macrophages 7d: -
  binding to primary macrophages 7d: −
GPC-16; [4]
  binding to GPC-16: ++
GPC-16; [5]
  binding to GPC-16: ++
U-87MG
  binding to U-87MG: ++
MDA-MB-231
  binding to MDA-MB-231: ++
HT-29
  binding to HT-29: ++
H MC-1
  binding to H MC-1: -
NIH-3T3; Table S1, 2 mM MnCl2, on ice
  binding to NIH-3T3: +
NIH-3T3; [2]
  binding to NIH-3T3: +
HeLa
  binding to HeLa: ++
L-929
  binding to L-929: -
E0771
  binding to E0771: +
4T1
  binding to 4T1: ++
PC-3 or A431 cells; 37 °C, flow cytometry
  t1/2 on cell membranes: at least 15 minutes
